Source: PMC8279484 (Journal of Medicinal Chemistry, 2021)

Legend:
Type in all cases: cell-based, human
THP-1 LUCIA monocytes [1] = test: In vitro safety study: Safety index (Si), activity versus toxicity; details: for IC50: Homo sapiens, THP-1, highest IC50 among the LPS-challenged assays (NF-κB activity, cytokine, LDH release), read-out: Extrinsic Activity hIC50; for Safety Index TC50/IC50: ratio of intrinsic TC50 to extrinsic hIC50
Procedure: A postanalysis “safety study” was conducted on all QNX-sLXms. For each tested compound, we calculated an in vitro “Safety index” (Si) by relating its “anti-inflammatory half-maximal activity” (the highest dose among the IC50 of the extrinsic LPS-challenged phenotype: NF-κB activity, proinflammatory cytokine, and LDH release) to its intrinsic “toxicity” (expressed as the relative half-maximal LDH-associated cytotoxicity). The generated Si is potentially predictive of a translational “therapeutic” range: the higher the Si, the safer the molecule is. As summarized in Table S4, Si values from all tested compounds fall in a broad range (7–50).

THP-1 LUCIA monocytes [2] = test: Intrinsic cytotoxicity: LDH release without LPS; details: for Intrinsic Toxicity Level: LDH-associated level of cytotoxicity (high / moderate / low); for Intrinsic Toxicity TC50 (pM): half-maximal intrinsic LDH-associated toxic activity, no LPS
Procedure: We investigated the potential cytotoxicity of all candidate sLXms by assaying LDH release.[50] The response to LPS was arbitrarily set to 100%, and values were expressed relative to this. As previously reported by others, LPS provokes LDH release.[51] […] Ultimately, untreated cells defined the spontaneous cell release thresholds.
Lactate dehydrogenase (LDH) was assayed in cell supernatants to investigate possible cytotoxicity of the lead compound. LDH is rapidly released into the culture medium after disruption of the plasma membrane.[67],[69] After 24 h of exposure to sLXms, vehicle, or controls, followed by LPS stimulation, as described above, THP-1-Lucia NF-κB-cell supernatants were collected and LDH was assayed. Cytotoxicity was evaluated relative to vehicle controls. Maximum releasable LDH was determined in cells lysed with 2% Triton-X-100 (Sigma-Aldrich, Ireland). LDH levels were assessed by reading the absorbance at 490 nm (protein) and 690 nm (background noise), using a spectrophotometer (SPECTRAMAX M2, Molecular Devices (U.K.) Limited).

IL-6 = test: LPS-induced IL-6 release from THP-1 Lucia monocytes (multiplex electrochemiluminescence)
Procedure: (§1) LXA41 and all of the tested sLXms were dissolved in ethanol and further diluted in a culture medium (final ethanol concentration 0.1%; equivalent concentrations were used as the vehicle control). Prior to in vitro experiments, THP-1-Lucia NF-κB cells were harvested and plated at 1 × 10^5 cells/well on 96-well plates and left to settle in the incubator at 37 °C, 95% humidity, and 5% CO2, in 0.1% FBS-containing media, pretreated for 30 min with increasing doses of LXA41, sLXms (from 10^–12 to 10^–6 M), or appropriate controls, followed by stimulation with 50 ng/mL LPS for 24 h. Untreated (Unt) or vehicle-treated (Veh) cells were used as negative controls; 1 pM (1R)-5, the (1R)-epimer of the benzo-mimetic, was used as a positive control for any aromatic mimetic; and, finally, we compared the observed effects to the conventional glucocorticoid dexamethasone (Dex) treatment, at 1 μM.
(§2) After 24 h of exposure to LXA41, sLXms, or vehicle, followed by LPS stimulation (50 ng/mL), as described above, THP-1-Lucia NF-κB-cell supernatants were collected and cleared by centrifugation. Concentrations of IFN-γ, IL-1β, IL-6, IL-8, IL-10, IL-12p70, and TNF-α in culture supernatants were assessed by electro-chemi-luminescent detection, using a commercially available human 96-well plate “multiplex” (several analytes in the same well) kit for tissue culture samples, according to the manufacturers’ guidelines.
(§3) The “coding” of the heat-map indicates the arbitrary criteria to assign points to each single PD component (efficacy = Imax or Emax; potency = IC50 or EC50; slope = HS) to generate a final (aggregate) relative PD score. If a single PD component was greater than the reference level (x > 1), then the single-component relative score was arbitrarily set to +1 (light green) or +2 (dark green). If a single PD component was equal to the reference level (x = 1), then the single-component relative score was arbitrarily set to 0 (gray). If a single PD component was smaller than the reference level (x < 1), then the single-component relative score was arbitrarily set to −1 (light red) or −2 (dark red). If the curve of a single PD component was best fitting to a flat line (x = 0), then the single-component relative score was arbitrarily set to −4 (purple) (Table S1).

IFNγ = test: LPS-induced IFNγ release from THP-1 Lucia monocytes (multiplex electrochemiluminescence)
Procedure: as §1, §2, §3

NF-κB = test: LPS-induced NF-κB-driven luciferase gene reporter assay in THP-1 Lucia monocytes; details: for Rel. Slope: HS relative to LXA4 (1); for Efficacy Rel. Eff.: Imax relative to LXA4 (1); for reduction of LPS-induced NF-κB-driven luciferase activity: approximate extent; for reduction of LPS-induced NF-κB-driven luciferase activity / Imax (%): 1 pM–1 μM; for Imax (%): maximal % inhibition of LPS (50 ng/mL)-stimulated NF-κB luciferase activity, 30 min pretreatment
Procedure: Mycoplasma-free THP-1-Lucia NF-κB cells were grown in an RPMI 1640 (Gibco) medium containing 2 mM L-glutamine, 1.50 g/L sodium bicarbonate, 4.50 g/L glucose, 10 mM N-(2-hydroxyethyl)piperazine-N′-ethanesulfonic acid (HEPES), and 1 mM sodium pyruvate. Then, 10% heat-inactivated fetal bovine serum (FBS) (30 min at 56 °C), 100 μg/mL Normocin, and Pen-Strep (50 U/mL to 50 μg/mL) were also added to the growth media. As THP-1-Lucia cells were resistant to Zeocin, the latter was used as a selective antibiotic (a high dose, i.e., 100 μg/mL, was alternated every 2 weeks with a low dose, i.e., 10 μg/mL).
as §1, with “h.” for “h. Untreated (Unt) or vehicle-treated (Veh) cells were used as negative controls; 1 pM (1R)-5, the (1R)-epimer of the benzo-mimetic, was used as a positive control for any aromatic mimetic; and, finally, we compared the observed effects to the conventional glucocorticoid dexamethasone (Dex) treatment, at 1 μM.”
NFκB activity was monitored in the human THP-1 monocytic leukemia cell line containing a stably integrated NF-κB-inducible Lucia reporter construct (as previously reported).[21] When stimulated with LPS, the transcription factor NF-κB is activated, upregulating the synthesis of proinflammatory mediators, thus bringing about an inflammatory response. In these cells, NF-κB activation is linked to a […] luciferase gene and can be measured using luminescence.
Heat-killed listeria monocytogenes (HKLM) (10^8/mL) was used as a positive control.[28] The levels of NF-κB-induced Luciferase were then measured in a culture supernatant using QUANTI-Luc as the detection reagent, and measurements were taken on a bioluminescence reader.
After 24 h, the levels of NF-κB-induced Lucia were assayed in a cell culture supernatant using QUANTI-Luc, as a detection reagent, on a bioluminescence reader (Synergy HT, BioTek Instruments, Inc. Vermont). Aliquots of the supernatant were retained for subsequent cytokine and LDH assays. Cellular proteins were extracted with a radioimmunoprecipitation assay (RIPA) buffer (Thermo Fisher, Ireland), supplemented with protease inhibitors (Sigma-Aldrich, Ireland). Lysates were clarified by centrifugation (3200g, 10’, 4 °C) to remove cell debris, and the cell protein level was quantified by performing a bicinchoninic acid (BCA) assay (as per the manufacturer’s instructions) reading the protein absorbance at 570 nm, using a spectrophotometer (SPECTRAMAX M2, Molecular Devices (U.K.) Limited). A “relative luminescence unit” (RLU) was obtained using the average value of the lum/abs ratio of two replicates.
The “coding” of the heat-map indicates the arbitrary criteria to assign points to each single PD component (efficacy = Imax or Emax; potency = IC50 or EC50; slope = HS) to generate a final (aggregate) relative PD score. […] If a single PD component was equal to the reference level (x = 1), then the single-component relative score was arbitrarily set to 0 (gray). If a single PD component was smaller than the reference level (x < 1), then the single-component relative score was arbitrarily set to −1 (light red) or −2 (dark red). If the curve of a single PD component was best fitting to a flat line (x = 0), then the single-component relative score was arbitrarily set to −4 (purple) (Table S1).

IL-1β = test: LPS-induced IL-1β release from THP-1 Lucia monocytes (multiplex electrochemiluminescence)
Procedure: as §1, §2, §3

[3] = Homo sapiens, THP-1, LPS 50 ng/mL, 24 h
[4] = concentration–response, LPS 50 ng/mL, 24 h

| SMILES | IC50 (THP-1 LUCIA monocytes [1]) [nM] | Safety Index TC50/IC50 (THP-1 LUCIA monocytes [1]) | Intrinsic Toxicity Level (THP-1 LUCIA monocytes [2]) | Intrinsic Toxicity TC50 (pM) (THP-1 LUCIA monocytes [2]) | Rel. Slope (NF-κB) | Efficacy Rel. Eff. (NF-κB) | reduction of LPS-induced NF-κB-driven luciferase activity (NF-κB) | Imax (%) (NF-κB; 24 h) | (Single component) Rel. Score: Rel. Sl. (NF-κB; score relative to LXA4 (1)) | other results |
| --- | --- | --- | --- | --- | --- | --- | --- | --- | --- | --- |
| CCCCC[C@H](O)c1nc2ccccc2nc1/C=C/[C@@H](O)[C@@H](O)CCCC(=O)OC [(S)-6, Methyl (5S,6R,E)-5,6-Dihydroxy-8-(3-((S)-1-hydroxyhexyl)quinoxalin-2-yl)oct-7-enoate] | 0.02 | 10 | Low-Mod. | 200 pM | 0.47 | 1.42 | 25–35% | 34 ± 9 | 1 (1 < x < 10) | IC50 (IL-6; [3]): 1 pM; Imax, IL-6 release (IL-6; [4]): 98 ± 1%; PD score, IL-6 release (IL-6; relative to LXA4 (1)): +2; rel. slope, IL-6 release (IL-6; relative to LXA4 (1)): 2.4; IC50 (IFNγ; [3]): 2 nM; Imax, IFNγ release (IFNγ; [4]): 74 ± 4%; Imax, IL-1β release (IL-1β; [4]): completely lost the protective effect; PD score, IL-1β release (IL-1β; relative to LXA4 (1)): −6 |
| CCCCCCC[C@@H](O)c1nc2ccccc2nc1/C=C/[C@@H](O)[C@@H](O)CCCC(=O)OC [(R)-8, Methyl (5S,6R,E)-5,6-Dihydroxy-8-(3-((R)-1-hydroxyoctyl)quinoxalin-2-yl)oct-7-enoate] | 0.2 | 50 | Low-Mod. | 10,000 pM | 0.49 | 0.96 | 10–20% | 23 ± 7 | -1 (0.01 < x < 1) | PD score, IFNγ release (IFNγ; relative to LXA4 (1)): negative PD scores; IC50 (NF-κB; Homo sapiens, THP-1, LPS 50 ng/mL, 24 h, read-out: Potency IC50): 0.04 nM; Potency Rel. Pot. (NF-κB; IC50 relative to LXA4 (1)): 1.5; IC50 (range in words) (NF-κB; LPS 50 ng/mL, 24 h): “pM” range; (Single component) Rel. Score: Rel. Pot. (NF-κB; score relative to LXA4 (1)): 1 (1 < x < 5); (Aggregate) Rel. PD Score (NF-κB; sum of efficacy, potency, slope scores relative to LXA4 (1)): 0 |
